Measured values reported in PubChem BioAssay AID1549 (Sanford-Burnham Center for Chemical Genomics, 2009).
Activity calls are given as the source filed them. The rule behind the calls is not given here.

molecular target: Influenza A virus M2 proton channel (A/TW/4845/1999 H1N1); experiment: NMR binding screen, influenza A virus M2 proton channel, Kd (AID 1549); conditions: M2 protein

| SMILES | Kd |
| --- | --- |
| O=c1[nH]c(O)c(C=NCc2cccs2)c(=O)[nH]1 | > 4 mM (inactive) |
| CC(=O)NC(O)C(=O)c1cccs1 (centres undefined) | > 4 mM (inactive) |
| Cc1occc1C(=O)Nc1ccc2c(c1)OCO2 | > 4 mM (inactive) |
| NC12CC3CC(C1)CC(CC(=O)O)(C3)C2 | > 4 mM (inactive) |
| O=C(O)c1ccc2c(c1)OCO2 | > 4 mM (inactive) |
| Cc1ccc(SCCN2C(=O)NC(C)(C)C2=O)cc1 | > 4 mM (inactive) |
| Nc1ccc(C2SCCS2)cc1 | > 4 mM (inactive) |
| O=C(Nn1cnnc1)c1cc2c(s1)CCCC2 | > 4 mM (inactive) |
| Cc1[nH]c2ccccc2c(=O)c1CO | > 4 mM (inactive) |
| O=c1c(O)cc([C@H]2Oc3cc(O)cc(O)c3C[C@H]2O)cc2c([C@H]3Oc4cc(O)cc(O)c4C[C@H]3O)cc(O)c(O)c12 | > 4 mM (inactive) |
| Cc1cc(C)n(C2CCS(=O)(=O)C2)n1 (centres undefined) | > 4 mM (inactive) |
| CC(=O)O[C@@H]1CC2C(C)(C)[C@H](O)C=C[C@]2(C)C2CC[C@@]3(C)[C@H](c4ccoc4)OC(=O)C4OC43[C@@]21C (some centres undefined) | > 4 mM (inactive) |
| CCOc1ccc2ccccc2c1C(=O)N1CCOCC1 | > 4 mM (inactive) |
| COc1ccccc1N1C(=N)SCC1=O | > 4 mM (inactive) |
| NS(=O)(=O)c1ccc(N=C2NC(=O)CS2)cc1 | > 4 mM (inactive) |
| CC(=O)NS(=O)(=O)c1ccc(C)cc1 | > 4 mM (inactive) |
| CC1CCN(S(=O)(=O)N(C)C)CC1 | > 4 mM (inactive) |
| CC(=O)O[C@@H]1CC2C(C)(C)CCC(=O)[C@]2(C)C2CC[C@@]3(C)[C@H](c4ccoc4)OC(=O)C4OC43[C@@]21C (some centres undefined) | > 4 mM (inactive) |
| O=S1(=O)CCC2CC=CCC21 (centres undefined) | > 4 mM (inactive) |
| CC1=NN2C(=N)CC(=O)N=C2S1 | > 4 mM (inactive) |
| COc1ccc(-c2nnc(-c3ccc(N)cc3)o2)cc1 | > 4 mM (inactive) |

| SMILES | Kd |
| --- | --- |
| CN1C(=O)/C(=C/c2ccccc2O)NC1=S | > 4 mM (inactive) |
| COc1cc2c(cc1-c1cc3cc4ccoc4cc3oc1=O)OCO2 | > 4 mM (inactive) |
| Nc1ccc(N2CCOCC2)cc1 | > 4 mM (inactive) |
| O=C(Nc1cccnc1)c1c(F)cccc1F | > 4 mM (inactive) |
| O=C(O)/C=C/C(=O)Nc1ccccc1C(F)(F)F | > 4 mM (inactive) |
| COc1ccc(Cl)c(S(=O)(=O)N2CCCC2)c1 | > 4 mM (inactive) |
| Cc1ccc2[nH]c3nc(=S)[nH]nc3c2c1 | > 4 mM (inactive) |
| O=c1[nH]oc2ccccc12 | > 4 mM (inactive) |
| Cn1c(SCC(N)=O)nc2c1c(=O)[nH]c(=O)n2C | > 4 mM (inactive) |
| CC1CCc2cc(F)ccc2N1C(=O)c1ccc(=O)[nH]n1 (centres undefined) | > 4 mM (inactive) |
| Fc1ccc(NC2=NCCS2)cc1Cl | > 4 mM (inactive) |
| C=C1C2CC[C@H]3[C@]4(C)C[C@H](OC5OC(CO)C(OS(=O)(=O)O)C(OS(=O)(=O)O)C5OC(=O)CC(C)C)C[C@@H](C(=O)O)[C@H]4CC[C@]3(C2)[C@H]1O (some centres undefined) | > 4 mM (inactive) |
| Cc1onc(-c2ccccc2)c1CN | > 4 mM (inactive) |
| CNc1nc(C)nc(-n2nc(C)cc2C)n1 | > 4 mM (inactive) |
| CCOC(=O)C(C)c1n[nH]c(=O)c2ccccc12 (centres undefined) | > 4 mM (inactive) |
| O=C(O)c1ccc(CN2CCOCC2)cc1 | > 4 mM (inactive) |
| Cc1nnc(C)n1/N=C/c1cccs1 | > 4 mM (inactive) |
| COc1cc(OC)c2c(c1Cl)OC1(C2=O)C(O)=CC(=O)CC1C (centres undefined) | > 4 mM (inactive) |
| CCCCC(Nc1n[nH]c(=O)[nH]c1=O)C(=O)O (centres undefined) | > 4 mM (inactive) |
| O=C1NC(=O)C(Cc2ccccc2)C(=O)N1 | > 4 mM (inactive) |
| CSc1ccc(C2NC(=O)CCC2[N+](=O)[O-])cc1 (centres undefined) | > 4 mM (inactive) |

| SMILES | Kd |
| --- | --- |
| O=S(=O)(O)c1cc[n+]([O-])cc1 | > 4 mM (inactive) |
| OCCNc1nc2ccc(Cl)cc2[nH]1 | > 4 mM (inactive) |
| COc1cccc(O)c1O | > 4 mM (inactive) |
| CN(C)C(=O)c1ccc(-c2n[nH]c(=O)c3ccccc23)cc1 | > 4 mM (inactive) |
| O=C(Nc1nc2c(s1)CCCC2)c1cccnc1 | > 4 mM (inactive) |
| COc1c(CC=C(C)C)c2c(c3oc(=O)c(-c4ccc(O)cc4)c(O)c13)C=CC(C)(C)O2 | > 4 mM (inactive) |
| COC(=O)[C@@H]1OC(=O)C2OC23[C@@]1(C)CCC1[C@]2(C)C(C[C@@H](O)[C@]13C)C(C)(C)[C@H](OC(C)=O)C[C@@H]2OC(C)=O (some centres undefined) | > 4 mM (inactive) |
| Cc1cc(CN2C(=O)c3ccccc3C2=O)on1 | > 4 mM (inactive) |
| COC(=O)C1CCN(c2ccc(Cl)nn2)CC1 | > 4 mM (inactive) |
| COc1cc(OC)c(-c2c(OC)cc(OC)cc2OC)c(OC)c1 | > 4 mM (inactive) |
| O=C1CCCC(=O)N1Cc1ccco1 | > 4 mM (inactive) |
| O=C(Nn1cnnc1)c1csc2ccccc12 | > 4 mM (inactive) |
| NCc1csc(-c2cccs2)n1 | > 4 mM (inactive) |
| Cc1csc2nc3ccccc3c(=O)n12 | > 4 mM (inactive) |
| CC1(C)CC2C1CCC1(C)OC2(C)CCC1O (centres undefined) | > 4 mM (inactive) |
| Cc1cccc(CO)n1 | > 4 mM (inactive) |
| CCNC(=S)N1CCC(C(N)=O)CC1 | > 4 mM (inactive) |
| COc1ccc(N2CC(=O)NC2=O)cc1 | > 4 mM (inactive) |
| COC(=O)Cc1csc(N)n1 | > 4 mM (inactive) |
| OCC1CCCN2CCCCC12 (centres undefined) | > 4 mM (inactive) |
| COC(=O)c1sccc1S(=O)(=O)N1CCCC1 | > 4 mM (inactive) |

| SMILES | Kd |
| --- | --- |
| O=C(Nc1cccnc1)c1c(F)c(F)c(F)c(F)c1F | > 4 mM (inactive) |
| O=C1CC(N2CCC(O)CC2)C(=O)N1c1ccc(F)cc1 (centres undefined) | > 4 mM (inactive) |
| CCc1ccccc1NC(=O)c1cnccn1 | > 4 mM (inactive) |
| O=c1[nH]cnc2nn(-c3ccccc3)nc12 | > 4 mM (inactive) |
| COC(=O)C(O)c1ccccc1 (centres undefined) | > 4 mM (inactive) |
| O=C(Nc1ccccc1F)c1ccncc1 | > 4 mM (inactive) |
| O=C(c1ccccc1)N1CCN(c2ccccc2F)CC1 | > 4 mM (inactive) |
| O=C1CSC(=Nc2ccc(C(=O)O)cc2)N1 | > 4 mM (inactive) |
| O=S(=O)(N1CCOCC1)n1nnc2ccccc21 | > 4 mM (inactive) |
| C=CCc1ccc(OC(=O)c2ccccc2)c(OC)c1 | > 4 mM (inactive) |
| O=c1c(-c2cc(O)c(O)c(O)c2)coc2cc(O)c(O)c(O)c12 | > 4 mM (inactive) |
| Cc1n[nH]c(=S)n(/N=C/c2ccccc2)c1=O | > 4 mM (inactive) |
| O=C(O)Cc1nc(-c2ccncc2)n[nH]1 | > 4 mM (inactive) |
| COc1ccc(-c2coc3cc(O)ccc3c2=O)cc1 | > 4 mM (inactive) |
| O=C(O)C1CCCCN1Cc1ccccc1 (centres undefined) | > 4 mM (inactive) |
| S=c1oc(-c2ccncc2)nn1CCc1ccncc1 | > 4 mM (inactive) |
| O=CN1CCN(C(=O)c2ccccc2F)CC1 | > 4 mM (inactive) |
| CCOc1cccc(C(=O)c2ccc(O)c(O)c2O)c1 | > 4 mM (inactive) |
| C=C1C2CC[C@@]3(C)[C@H](c4ccoc4)OC(=O)C[C@]13O[C@H]1C[C@H](OC(C)=O)C(C)(C)[C@H](CC(=O)OC)[C@@]21C | > 4 mM (inactive) |
| CC(=O)c1c(O)cc(O)cc1O | > 4 mM (inactive) |
| O=C(O)c1ccc(-c2cnco2)cc1 | > 4 mM (inactive) |
